From the METLIN SMRT retention time set (Domingo-Almenara et al. 2019)

Assay: gradient 5% acetonitrile 3 min, to 50% in 2 min, to 85% in 15 min, held 3 min, 100 µL/min
Conditions: column: Zorbax Extend-C18 2.1 x 50 mm; eluents: water / acetonitrile, 0.1% formic acid
How it was run: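 Using water and acetonitrile that each contained 0.1% formic acid, mixtures of ~100 pure standards were separated at 100 μL/min on a Zorbax Extend-C18 column (2.1 × 50 mm, 1.8 μm). The HPLC fed a quadrupole time-of-flight mass spectrometer working in positive and negative ionization mode, with dead and dwell volumes of 40 μL and 900 μL. Data were acquired over 3 months. Retention time was read from computationally picked adduct peaks after manual inspection of each.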

SMILES | RP-LC retention time [s]
Cc1ccc2c(C(=O)NCCc3cccs3)cc(NC(=O)C3CCC3)cc2n1 | 660
COCCNC(=O)N1c2ccccc2CC1c1nc(C(C)C)no1 (stereo not drawn) | 836
CC(C)Oc1ccc(-c2noc(Cc3nnc(-c4ccc(F)cc4)o3)n2)cc1 | 1110
COC(=O)C(C)NC(=O)N1CCN(c2nc3ccccc3n2Cc2ccccc2)CC1 (stereo not drawn) | 659
COc1ccc(NS(=O)(=O)c2c(C)nn(-c3ccc(-c4ccc(C)cc4)nn3)c2C)cc1 | 1060
COCCN1C(=O)c2ccccc2C(C(=O)NCc2ccc(OC)cc2)C12CCCC2 (stereo not drawn) | 785
COC(=O)c1ccc(NC(=O)N2CCC3(CC2)N(CC2CC2)C(=O)CS3=O)cc1 (stereo not drawn) | 674
CCOC(=O)c1cnc2nc(C)ccc2c1Nc1ccc(Cl)cc1 | 752
COc1ccccc1NC(=O)c1cnc2c(c1)c(=O)n(C)c(=O)n2-c1ccccc1 | 922
Cc1nnc(-c2cn(CC(=O)Nc3ccc(Cl)cc3)c3ccccc23)o1 | 856
COc1ccc(NC(=O)Cn2c(=O)c3cc(-c4cccs4)nn3c3ncccc32)cc1 | 810
COc1ccc(-c2nnc(COc3ccc(NC(=O)c4cccnc4Cl)cc3)o2)cc1 | 820
Cc1nnc([C@@H]2CC(F)(F)CN2C(=O)c2nn(C)c3ccccc23)o1 | 788
Cn1nnc2cc(C(=O)N3CCCCC3)ccc21 | 738
Fc1ccccc1Cc1nc(-c2cccc(-c3ccn[nH]3)c2)no1 | 939
O=C(NCCCN1CCCC1)C1CCN(Cc2cc3ccccc3n2Cc2ccccc2Cl)CC1 | 609
COC(=O)c1cc2c(=O)n(-c3nc4cc(C)c(C)cc4s3)ccc2nc1C | 1420
O=C(Nc1ccc(OCc2nnc(-c3ccccc3)o2)cc1)C1CCC1 | 878
CCc1ccc(NC(=O)C2CCCN(S(=O)(=O)c3c[nH]c(C(=O)N4CCCC4)c3)C2)cc1 (stereo not drawn) | 873
Cc1cc(C)c(S(=O)(=O)N2CCC(C(=O)NCCc3csc(-c4ccccc4)n3)CC2)cc1C | 1070
CC1(C(=O)NCc2ccc(F)cc2)CCCN(S(=O)(=O)c2ccc(F)cc2F)C1 (stereo not drawn) | 963
COc1ccc(-c2noc(NC3CCCC3)n2)cc1 | 951

SMILES | RP-LC retention time [s]
O=C(Nc1nc(-c2ccccc2)cs1)c1cncc(Br)c1 | 998
O=C(NCCCN1CCOCC1)C1=C2CCCN2c2ccc(F)cc2S1(=O)=O | 576
CCc1nc(-c2c(C)cc(C)nc2NC(=O)c2cc(C)cc(C)c2)no1 | 605
COc1ccc(Nc2c(-c3ccc4c(c3)OCO4)nc3cnccn23)cc1OC | 709
Cn1ncn2cc(S(=O)(=O)N3CCN(c4ccccn4)CC3)cc2c1=O | 578
COc1ccc(C)cc1NC(=O)Cn1nc(N2CCCC(C)C2)c2ccccc2c1=O (stereo not drawn) | 1260
Cc1c(C(=O)NCCCN2CCC(C)CC2)sc2ncn(CC(=O)N3CCCCC3C)c(=O)c12 (stereo not drawn) | 628
COc1cc(F)ccc1-c1ccnc2nc(C(C)C)nn12 | 842
CCN1C(=O)c2cc(S(=O)(=O)Nc3ccc(F)c(Cl)c3)ccc2Oc2cccnc21 | 1090
CCN1C(=O)c2cccnc2Sc2cc(CNC(=O)COc3ccccc3)ccc21 | 798
Cc1ccccc1N(C)C(=O)C1CCCN(c2ncnc3c2nc2n3CCCCC2)C1 (stereo not drawn) | 870
CC(O)CCC(=O)NCCc1nc2ccccc2n1Cc1ccccc1F (stereo not drawn) | 566
O=C(CN1C(=O)NC2(CCCCC2)C1=O)Nc1cccc(Cl)c1 | 815
Cc1ccc(C)c(N2CCN(C(=O)c3cc(-c4ccncc4)cn3C)CC2)c1 | 710
O=C(C1CCCO1)N1CCC(OCc2nc(-c3cccnc3)no2)CC1 (stereo not drawn) | 636
Cc1cc(C)cc(C(=O)N2CCN(c3nnc4ccccn34)CC2)c1 | 657
O=C1CCCc2cc(S(=O)(=O)NCC3CCN(Cc4cccc(F)c4)CC3)ccc2N1 | 606
CN1C(=O)c2ccccc2C(C(=O)NCCCN2CCc3ccccc3C2)C1c1cccs1 (stereo not drawn) | 647
O=C(NC1CC1)c1ccc(OCC2CCN(C(=O)c3ccc(Br)o3)CC2)cc1 | 830
CCOc1ccc(CC(=O)N2CCC3(CC2)C(=O)N(C)c2ccccc23)cc1OCC | 830
COCCCn1c(=O)c2ccccc2n(Cc2nc(-c3ccc(C)cc3)no2)c1=O | 1060
COc1cc(NC(=O)C2CCN(c3nccnc3Sc3ccccc3)CC2)cc(OC)c1OC | 984

SMILES | RP-LC retention time [s]
CCCN1C(=O)c2cc(S(=O)(=O)N3CCCC3)ccc2Oc2cccnc21 | 913
Cc1ccc(C(=O)NCC2CC(=O)N(c3ccc(Cl)cc3)C2)cc1[N+](=O)[O-] (stereo not drawn) | 822
COc1ccc(-c2noc(C3CC(=O)N(c4ccc(F)cc4)C3)n2)cc1 (stereo not drawn) | 912
CCN(CCCNC(=O)C1CCN(S(=O)(=O)N2CCOCC2)CC1)c1cccc(C)c1 | 623
O=c1c(=O)n(-c2cccc(Cl)c2)ccn1Cc1nc(-c2cccc(F)c2)no1 | 895
c1cc(-c2noc(C3CCC3)n2)cc(N2CCOCC2)n1 | 804
CCOc1ccc(-c2ccc3nnc(SCC(=O)Nc4nc(C)cs4)n3n2)cc1 | 752
O=C(NCCc1ccccc1)N1CCN(C(=O)N2C[C@H]3C[C@H](C2)[C@H]2CCCC(=O)N2C3)CC1 | 629
CC(C)n1cnc(S(=O)(=O)N2CCC(C(=O)N3CCN(c4ccccn4)CC3)CC2)c1 | 571
CN1CCN(S(=O)(=O)c2ccc(C#N)cc2)CC1c1ccccc1 (stereo not drawn) | 528
CCOC(=O)c1cn(CC(=O)Nc2ccc(Br)cc2)c2nc(C)ccc2c1=O | 821
CC(C)CC(=O)N[C@H](Cc1ccccc1)C(=O)NCc1cscn1 | 699
CNC(=O)c1cnn2c3c(cnc12)CCCCCC3 | 831
O=C(NCCCNc1nc(Nc2cccc(NC(=O)N3CCCC3)c2)ncc1I)c1cccs1 | 691
COc1cc(N)c(Cl)cc1C(=O)CCC1CCN(CCNS(C)(=O)=O)CC1 | 673
Cc1c2cnn(CC(=O)NCc3ccc4c(c3)OCO4)c(=O)c2c(C)n1Cc1cccc(Cl)c1 | 880
Cc1ccc(-c2nc3ccc(C)cn3c2Nc2ccc3c(c2)OCO3)cc1 | 725
CCOC(=O)c1cnc2c(-c3cccc(Cl)c3)c(COC)nn2c1N | 1150
Cc1nc(-c2ccc(N3CCN(C(=O)c4cccc(F)c4)CC3)nc2)sc1C | 921
Cc1ccc(NS(=O)(=O)c2cn(CC(C)C)c3ncccc23)c(C)c1 | 1050
Cc1ccc(NC(=O)C2CCN(S(=O)(=O)c3ccc4c(c3)NC(=O)C(C)O4)CC2)cc1 (stereo not drawn) | 817
O=C(NCc1ccccc1)C1Oc2ccccc2NC1=O (stereo not drawn) | 701

SMILES | RP-LC retention time [s]
CC1(C(=O)NCc2ccccc2)CN(S(C)(=O)=O)CC(=O)N1Cc1ccccc1F (stereo not drawn) | 818
CC(C)CN1CCN(C(=O)COc2ccc(NC(=O)C3CC3)cn2)CC1 | 570
Cc1cc(-c2nnc(-c3ccco3)o2)c(C)n1CC(=O)Nc1ccc(F)c(Cl)c1 | 941
CC(C)N1CCN(Cc2nc(-c3ccc(N4CCOCC4)nc3)no2)CC1 | 574
CCC(=O)N1CCc2cc(-c3ccc(C(=O)N4CCN(C(=O)c5ccco5)CC4)cc3)ccc21 | 764
Cc1nc(-c2ccccc2)nc2c1CCC(=O)N2C | 868
COc1cccc(-c2noc(Cc3nnc(-c4cccc(Br)c4)o3)n2)c1OC | 1010
O=C(c1ccc(Cn2cncn2)cc1)N1CCN(c2ccccc2F)CC1 | 712
CCCNC(=O)C1CCCN(c2nnc3c(Cl)cccn23)C1 (stereo not drawn) | 571
CCOc1ccc2cccc(NC(=O)Cc3cccc(OC)c3)c2n1 | 1120
Cc1ccc2c(c1)N(CCC(C)C)N=C(C(=O)N1CCCCC1)S2(=O)=O | 1080
CCCc1cc(C2CCCN2C(=O)Nc2ccccc2C)no1 (stereo not drawn) | 902
COc1ccc(S(=O)(=O)N2CCC(Cc3nncn3C)CC2)cc1 | 657
CC(CNC(=O)C1CCN(C(=O)c2ncn3c2COC(c2ccccc2)C3)CC1)c1ccccc1 (stereo not drawn) | 826
Cc1cc(C)n2c(Nc3cccc(C(F)(F)F)c3)c(-c3ccc(O)cc3)nc2n1 | 697
O=C(NC1(c2nc(-c3cnccn3)no2)CCCCC1)c1ccco1 | 712
O=C(NCCC1CCN(S(=O)(=O)c2ccc(F)cc2)CC1)Nc1ccccc1 | 881
Cc1cccc(CCNC(=O)c2cc3n(n2)CC(C)(C(=O)NCc2ccccc2)N(C)C3=O)c1 (stereo not drawn) | 814
CN(C)[C@@H]1CN(C(=O)Cn2c(=O)oc3cc(Cl)ccc32)C[C@H]1CO | 596
COc1ccc(NC(=O)C2CCCN(c3nccnc3Sc3ccccc3)C2)cc1Cl (stereo not drawn) | 1150
Cc1ccsc1C(=O)NCC12CCCC=C1N(CC1CC1)C(=O)CC2 (stereo not drawn) | 904
CC1CCN(C(=O)C2CCN(c3nc4cccnc4s3)CC2)CC1 | 784
